Test results published in ChEMBL document CHEMBL1201862, “PubChem BioAssay data set” (2004).
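Exposure lasted 48 hours, with cells grown in 96-well plates and compounds tested at five concentrations. Abbreviation: GI50, concentration required for 50% inhibition of growth.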 The source made the active and inactive calls. Rule as the data show it: active = GI50 up to about 1.1 µM and inactive = higher.

Assays:
Assay in all cases: NCI anticancer screen, dose series, 48 h
[1] = test system: COLO 205
[2] = test system: OVCAR-3
[3] = test system: SK-MEL-5
[4] = test system: SF-539
[5] = test system: NCI-H23
[6] = test system: HL-60
[7] = test system: MDA-MB-435
[8] = test system: HOP-92
[9] = test system: ACHN
[10] = test system: CAKI-1
[11] = test system: MCF7
[12] = test system: RXF 393
[13] = test system: SF-268
[14] = test system: NCI-H460
[15] = test system: BT-549
[16] = test system: TK-10
[17] = test system: SR
[18] = test system: SW-620
[19] = test system: HCT-116
[20] = test system: HCC 2998

Measured: GI50

N=C(N)NS(=O)(=O)c1ccc(NC(=O)c2ccc3nc4ccccc4c(Nc4ccc(S(N)(=O)=O)cc4)c3c2)cc1
inactive: [1] > 100 µM | [2] > 100 µM | [3] > 100 µM | [4] > 100 µM | [5] > 100 µM | [6] > 100 µM | [7] > 100 µM | [8] > 100 µM | [9] > 100 µM | [10] > 100 µM | [11] > 100 µM | [12] > 100 µM | [13] > 100 µM | [14] > 100 µM | [15] > 100 µM | [16] > 100 µM | [17] > 100 µM | [18] > 100 µM | [19] > 100 µM | [20] > 100 µM

CC(C)(C)C1CCC2c3c([nH]c4ccccc34)C3C(=O)N(c4ccc(C(=O)O)cc4)C(=O)C3C2C1 (stereo not given)
inactive: [1] 19 µM | [2] 12.4 µM | [3] 13.1 µM | [4] 17.2 µM | [5] 17.7 µM | [6] 4.52 µM | [7] 2.96 µM | [8] 11.2 µM | [9] 11.7 µM | [10] 16.7 µM | [11] 11 µM | [12] 10.9 µM | [13] 14.2 µM | [14] 16.3 µM | [15] 14.5 µM | [16] 17.5 µM | [17] 25 µM | [18] 13.6 µM | [19] 14.4 µM | [20] 15.6 µM

N=C(N)NCC1CCCCCCN1 (stereo not given)
inactive: [1] > 100 µM | [2] > 100 µM | [3] > 100 µM | [4] > 100 µM | [5] > 100 µM | [6] > 100 µM | [7] > 100 µM | [8] > 100 µM | [9] > 100 µM | [10] > 100 µM | [11] > 100 µM | [12] > 100 µM | [13] > 100 µM | [14] > 100 µM | [15] > 100 µM | [16] > 100 µM | [17] > 100 µM | [18] > 100 µM | [19] > 100 µM | [20] > 100 µM

CC(=O)Nc1c(S(=O)(=O)c2ccccc2)c(C)c(C)n1CCN(C)C
inactive: [1] > 100 µM | [2] > 100 µM | [3] > 100 µM | [4] > 100 µM | [5] > 100 µM | [6] > 100 µM | [7] > 100 µM | [8] > 100 µM | [9] > 100 µM | [10] > 100 µM | [11] > 100 µM | [12] > 100 µM | [13] > 100 µM | [14] > 100 µM | [15] > 100 µM | [16] > 100 µM | [17] > 100 µM | [18] > 100 µM | [19] > 100 µM | [20] > 100 µM

CCCCCCCCCCCC[S+](C)C
inactive: [1] 1.29 µM | [2] 5.38 µM | [3] 3.17 µM | [4] 6.24 µM | [5] 4.48 µM | [6] 3.01 µM | [7] 3.36 µM | [8] 1.63 µM | [9] 4.56 µM | [10] 1.57 µM | [11] 9.02 µM | [12] 2.07 µM | [13] 6.68 µM | [14] 9.4 µM | [15] 2.19 µM | [16] 3.15 µM | [17] 8.69 µM | [18] 9.23 µM | [19] 6.22 µM | [20] 4.21 µM

O=S(=O)(O)c1ccc(/N=N/c2c(O)ccc3ccccc23)cc1
inactive: [1] > 100 µM | [2] > 100 µM | [3] > 100 µM | [4] > 100 µM | [5] > 100 µM | [6] > 100 µM | [7] > 100 µM | [8] > 69.8 µM | [9] > 100 µM | [10] > 100 µM | [11] > 100 µM | [12] > 100 µM | [13] > 100 µM | [14] > 100 µM | [15] > 100 µM | [16] > 100 µM | [17] > 100 µM | [18] > 100 µM | [19] > 100 µM | [20] > 100 µM

CCc1nc(N)nc(N)c1-c1ccc(Cl)c(/N=N/N(C)C)c1
inactive: [1] 24.1 µM | [2] 37.6 µM | [3] 20.7 µM | [4] 23.1 µM | [5] 27.4 µM | [6] 20.8 µM | [7] 27.9 µM | [8] 47.8 µM | [9] 28.6 µM | [10] 36.1 µM | [11] 37.7 µM | [12] 41.4 µM | [13] 49.2 µM | [14] 6.59 µM | [15] 30.1 µM | [16] > 100 µM | [17] 19.1 µM | [18] 27.4 µM | [19] 15.4 µM | [20] 23.7 µM
